Assay results taken from the supplement of paper PMC10307832.

Columns and labels:
Experiment in all cases: relative viability (nuclei count vs DMSO), 5 days (fraction); higher = more cells survive
[1] = system: A-427
How it was run: (§1)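 Lung cancer cell lines in 1536-well plates got either a single drug or a fixed anchor-drug dose together with five library-drug doses (not always all listed) in √10 steps, by pin tool, on the day after seeding. Nuclei were counted after 5 days, and relative viability is the treated-to-vehicle ratio of nuclei counts. Values are medians of duplicate plates.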

[2] = system: COR-L 105
How it was run: as §1

[3] = system: ChaGo-K-1
How it was run: as §1

[4] = system: EKVX
How it was run: as §1

[5] = system: EMC-BAC-2
How it was run: as §1

[6] = system: EPLC-272H
How it was run: as §1

[7] = system: HARA
How it was run: as §1

[8] = system: HCC-44
How it was run: as §1

[9] = system: LK-2
How it was run: as §1

[10] = system: LU99A
How it was run: as §1

[11] = system: NCI-H1650
How it was run: as §1

[12] = system: NCI-H1734
How it was run: as §1

[13] = system: NCI-H1755
How it was run: as §1

[14] = system: NCI-H1792
How it was run: as §1

[15] = system: NCI-H1993
How it was run: as §1

[16] = system: NCI-H2405
How it was run: as §1

[17] = system: NCI-H358
How it was run: as §1

[18] = system: NCI-H460
How it was run: as §1

[19] = system: NCI-H522
How it was run: as §1

[20] = system: NCI-H596
How it was run: as §1

[21] = system: NCI-H647
How it was run: as §1

[22] = system: RERF-LC-KJ
How it was run: as §1

[23] = system: SW 900
How it was run: as §1

Compound `CN1CCN(CCOc2cc(OC3CCOCC3)c3c(Nc4c(Cl)ccc5c4OCO5)ncnc3c2)CC1` [Saracatinib] + Nc1ncn([C@H]2C[C@H](O)[C@@H](CO)O2)c(=O)n1 [Decitabine] (partner 2 µM) has a relative viability ([1]; first compound 0.02 µM) of 0.533, a relative viability ([1]; first compound 0.2 µM) of 0.511 and a relative viability ([1]; first compound 0.6325 µM) of 0.593. For the same compound, the relative viability ([1]; first compound 2 µM) was 0.526, the relative viability ([2]; first compound 0.02 µM) was 0.719 and the relative viability ([2]; first compound 0.2 µM) was 0.485. For the same compound, the relative viability ([2]; first compound 0.6325 µM) was 0.635, the relative viability ([2]; first compound 2 µM) was 0.458 and the relative viability ([3]; first compound 0.02 µM) was 0.577. The relative viability ([3]; first compound 0.2 µM) was 0.427, the relative viability ([3]; first compound 0.6325 µM) was 0.579 and the relative viability ([3]; first compound 2 µM) was 0.542. It also gave a relative viability ([4]; first compound 0.02 µM) of 0.346, a relative viability ([4]; first compound 0.6325 µM) of 0.323 and a relative viability ([4]; first compound 2 µM) of 0.211. It also gave a relative viability ([5]; first compound 0.02 µM) of 1.05, a relative viability ([5]; first compound 0.2 µM) of 0.922 and a relative viability ([5]; first compound 0.6325 µM) of 1.02. It also gave a relative viability ([5]; first compound 2 µM) of 0.91, a relative viability ([6]; first compound 0.02 µM) of 0.388 and a relative viability ([6]; first compound 0.2 µM) of 0.361. The relative viability ([6]; first compound 0.6325 µM) was 0.442, the relative viability ([6]; first compound 2 µM) was 0.37 and the relative viability ([7]; first compound 0.02 µM) was 0.605. The relative viability ([7]; first compound 0.2 µM) was 0.367, the relative viability ([7]; first compound 0.6325 µM) was 0.465 and the relative viability ([7]; first compound 2 µM) was 0.381. It also gave a relative viability ([8]; first compound 0.02 µM) of 0.964, a relative viability ([8]; first compound 0.2 µM) of 0.854 and a relative viability ([8]; first compound 0.6325 µM) of 0.994. The relative viability ([8]; first compound 2 µM) was 0.94, the relative viability ([9]; first compound 0.02 µM) was 0.337 and the relative viability ([9]; first compound 0.2 µM) was 0.23. The relative viability ([9]; first compound 0.6325 µM) was 0.172, the relative viability ([9]; first compound 2 µM) was 0.201 and the relative viability ([10]; first compound 0.02 µM) was 0.857. The relative viability ([10]; first compound 0.2 µM) was 0.807, the relative viability ([10]; first compound 0.6325 µM) was 0.678 and the relative viability ([10]; first compound 2 µM) was 0.658. For the same compound, the relative viability ([11]; first compound 0.02 µM) was 0.428, the relative viability ([11]; first compound 0.2 µM) was 0.519 and the relative viability ([11]; first compound 0.6325 µM) was 0.431. For the same compound, the relative viability ([11]; first compound 2 µM) was 0.365, the relative viability ([12]; first compound 0.02 µM) was 0.524 and the relative viability ([12]; first compound 0.6325 µM) was 0.491. For the same compound, the relative viability ([12]; first compound 2 µM) was 0.475, the relative viability ([13]; first compound 0.02 µM) was 0.711 and the relative viability ([13]; first compound 0.2 µM) was 0.604. The relative viability ([13]; first compound 0.6325 µM) was 0.72, the relative viability ([13]; first compound 2 µM) was 0.691 and the relative viability ([14]; first compound 0.02 µM) was 0.597. It also gave a relative viability ([14]; first compound 0.2 µM) of 0.464, a relative viability ([14]; first compound 0.6325 µM) of 0.687 and a relative viability ([14]; first compound 2 µM) of 0.522. The relative viability ([15]; first compound 0.02 µM) was 0.63, the relative viability ([15]; first compound 0.2 µM) was 1.43 and the relative viability ([15]; first compound 0.6325 µM) was 0.521. The relative viability ([15]; first compound 2 µM) was 0.556, the relative viability ([16]; first compound 0.02 µM) was 0.698 and the relative viability ([16]; first compound 0.2 µM) was 0.717. It also gave a relative viability ([16]; first compound 0.6325 µM) of 0.583, a relative viability ([16]; first compound 2 µM) of 0.4 and a relative viability ([17]; first compound 0.02 µM) of 0.224. It also gave a relative viability ([17]; first compound 0.2 µM) of 0.198, a relative viability ([17]; first compound 0.6325 µM) of 0.179 and a relative viability ([17]; first compound 2 µM) of 0.146. It also gave a relative viability ([18]; first compound 0.02 µM) of 0.457, a relative viability ([18]; first compound 0.2 µM) of 0.242 and a relative viability ([18]; first compound 0.6325 µM) of 0.423. It also gave a relative viability ([18]; first compound 2 µM) of 0.32, a relative viability ([19]; first compound 0.02 µM) of 0.737 and a relative viability ([19]; first compound 0.2 µM) of 0.665. The relative viability ([19]; first compound 0.6325 µM) was 0.705, the relative viability ([19]; first compound 2 µM) was 0.627 and the relative viability ([20]; first compound 0.02 µM) was 0.912. For the same compound, the relative viability ([20]; first compound 0.2 µM) was 0.793, the relative viability ([20]; first compound 0.6325 µM) was 0.951 and the relative viability ([20]; first compound 2 µM) was 0.821. It also gave a relative viability ([21]; first compound 0.02 µM) of 0.438, a relative viability ([21]; first compound 0.2 µM) of 0.313 and a relative viability ([21]; first compound 0.6325 µM) of 0.468. It also gave a relative viability ([21]; first compound 2 µM) of 0.433, a relative viability ([22]; first compound 0.02 µM) of 0.688 and a relative viability ([22]; first compound 0.2 µM) of 0.657. It also gave a relative viability ([22]; first compound 0.6325 µM) of 0.734, a relative viability ([22]; first compound 2 µM) of 0.722 and a relative viability ([23]; first compound 0.02 µM) of 0.544. It also gave a relative viability ([23]; first compound 0.2 µM) of 0.384, a relative viability ([23]; first compound 0.6325 µM) of 0.399 and a relative viability ([23]; first compound 2 µM) of 0.635.
